Patent EP3722296B1, “DIHYDRONAPHTHYRIDINES AND RELATED COMPOUNDS USEFUL AS KINASE INHIBITORS FOR THE TREATMENT OF PROLIFERATIVE DISEASES” (Deciphera Pharmaceuticals, LLC, priority 2012, dated 2013)

Experiments:
c-KIT kinase [1] = biological target: T1, c-KIT kinase (Homo sapiens, UniProt P10721); experiment: Kinase inhibitory profile of marketed inhibitors, c-KIT kinase; type: biochemical
Target sequence in this assay (P10721 26-976): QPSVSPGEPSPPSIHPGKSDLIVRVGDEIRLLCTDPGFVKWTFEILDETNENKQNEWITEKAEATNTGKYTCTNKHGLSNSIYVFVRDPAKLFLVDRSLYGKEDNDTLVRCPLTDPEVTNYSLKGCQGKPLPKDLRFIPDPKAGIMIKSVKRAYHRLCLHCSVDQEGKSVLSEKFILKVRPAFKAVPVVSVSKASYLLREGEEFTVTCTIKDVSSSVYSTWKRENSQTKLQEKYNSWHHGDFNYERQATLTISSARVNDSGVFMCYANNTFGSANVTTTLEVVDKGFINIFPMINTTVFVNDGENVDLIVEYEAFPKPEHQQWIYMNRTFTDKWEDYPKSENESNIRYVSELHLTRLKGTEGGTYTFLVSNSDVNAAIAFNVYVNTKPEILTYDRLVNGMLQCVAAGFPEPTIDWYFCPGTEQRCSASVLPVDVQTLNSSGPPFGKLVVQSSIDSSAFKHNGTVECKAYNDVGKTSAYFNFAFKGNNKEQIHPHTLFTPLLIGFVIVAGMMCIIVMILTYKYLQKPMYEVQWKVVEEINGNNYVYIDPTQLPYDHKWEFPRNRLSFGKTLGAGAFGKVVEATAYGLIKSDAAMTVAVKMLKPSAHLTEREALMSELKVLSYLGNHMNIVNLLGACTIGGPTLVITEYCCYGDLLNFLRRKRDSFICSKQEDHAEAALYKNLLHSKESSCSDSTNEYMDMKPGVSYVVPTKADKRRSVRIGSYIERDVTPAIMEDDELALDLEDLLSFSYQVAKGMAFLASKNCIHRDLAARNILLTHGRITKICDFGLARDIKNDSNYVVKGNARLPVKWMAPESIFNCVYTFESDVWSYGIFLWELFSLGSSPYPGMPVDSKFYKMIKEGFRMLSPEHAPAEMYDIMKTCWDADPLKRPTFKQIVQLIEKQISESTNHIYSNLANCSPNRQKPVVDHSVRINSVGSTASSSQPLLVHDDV

Phospho-KIT (Tyr719) [2] = biological target: T2, Phospho-KIT (Tyr719) (Homo sapiens, UniProt P10721, K642E); experiment: GIST882 KIT Western Blot; type: cell-based; details: GIST882 cells, 4 hours, serum-free medium; read-out: pKIT suppression by western blot analysi GIST 882
T2 construct: endogenous in cells; host or cells: GIST882
T2 sequence (P10721 26-976 K642E): as the sequence (P10721 26-976) above, with K617E counted along it
Protocol: (§1) GIST48, GIST430, and GIST882 cells were obtained from J. Fletcher (Brigham and Women's Hospital, Boston, MA). GIST T1 cells were obtained from B. Rubin (Cleveland Clinic, Cleveland, OH) and Professor Takahiro Taguchi (Kochi Medical School, Nankoku, Kochi, Japan). […] GIST430 cells were grown in Ham's F10 medium supplemented with 15% characterized fetal bovine serum (Invitrogen, Carlsbad, CA), 30 mg/L bovine pituitary extract (BD Biosciences, San Jose, CA), 0.5% Mito+ serum extender (BD Biosciences, San Jose, CA), 1 unit/mL penicillin G, 1 µg/ml streptomycin, and 0.29 mg/mL L-glutamine at 37 °C, 5%CO2, 95% humidity. GIST T1 cells were grown in DMEM medium supplemented with 10% characterized fetal bovine serum (Invitrogen, Carlsbad, CA), 1 unit/mL penicillin G, 1 µg/ml streptomycin, and 0.29 mg/mL L-glutamine at 37 °C, 5% CO2, and 95% humidity.
(§2) Two hundred fifty thousand cells were added per well in a 24-well tissue-culture treated plate. […] Medium was aspirated, cells were washed with PBS, and serum-free RPMI1640 medium was added. […] Cells were washed with PBS, then lysed. Cell lysates were separated by SDS-PAGE and transferred to PVDF. Phospho-KIT (Tyr719) was detected using an antibody from Cell Signaling Technology (Beverly, MA), ECL Plus detection reagent (GE Healthcare, Piscataway, NJ) and a Molecular Devices Storm 840 phosphorimager in fluorescence mode. Blots were stripped and probed for total KIT using an antibody from Santa Cruz Biotech (Santa Cruz, CA). IC50 values were calculated using Prism software (Graphpad, San Diego, CA).

c-KIT T670I kinase = biological target: T3, c-KIT T670I kinase (Homo sapiens, UniProt P10721, T670I); experiment: c-KIT T670I kinase assay; type: biochemical; details: enzymatic assay
T3 construct: The construct contains residues T544-V976 of cKit; GST (N); TEV cleavage site (internal); purchased deCODE Biostructures
T3 sequence (P10721 544-976 T670I): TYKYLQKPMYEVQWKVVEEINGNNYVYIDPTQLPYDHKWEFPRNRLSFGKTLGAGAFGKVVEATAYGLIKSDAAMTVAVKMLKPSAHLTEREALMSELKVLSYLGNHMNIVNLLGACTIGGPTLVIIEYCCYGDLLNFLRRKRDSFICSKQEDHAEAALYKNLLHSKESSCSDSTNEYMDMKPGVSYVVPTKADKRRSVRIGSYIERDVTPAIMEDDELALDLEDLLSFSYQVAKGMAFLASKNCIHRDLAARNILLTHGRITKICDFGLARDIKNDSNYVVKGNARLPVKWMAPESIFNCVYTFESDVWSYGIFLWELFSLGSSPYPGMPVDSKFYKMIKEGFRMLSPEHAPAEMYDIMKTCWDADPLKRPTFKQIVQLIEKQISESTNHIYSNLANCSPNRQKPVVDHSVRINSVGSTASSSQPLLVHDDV
Method in brief: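 Coupled spectrophotometric assay following NADH oxidation as absorbance decrease at 340 nm, monitored continuously for 5 h at 30 °C after adding serially diluted compound. Enzyme is a cKit construct with N-terminal tag, GST fusion and TEV site, carrying the T670I mutation.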

c-KIT VVDV kinase = biological target: T4, c-KIT VVDV kinase (Homo sapiens, UniProt P10721, D816V/DEL559-560); experiment: cKIT-VVDV kinase Assay; type: biochemical; details: enzymatic assay; V559+V560 deletions and D816V mutation
T4 construct: This construct contains residues T544-V976 of cKit; GST (N); TEV cleavage site (internal); purchased deCODE Biostructures
T4 sequence (P10721 with tags, fused parts or gaps DEL559-560/D816V): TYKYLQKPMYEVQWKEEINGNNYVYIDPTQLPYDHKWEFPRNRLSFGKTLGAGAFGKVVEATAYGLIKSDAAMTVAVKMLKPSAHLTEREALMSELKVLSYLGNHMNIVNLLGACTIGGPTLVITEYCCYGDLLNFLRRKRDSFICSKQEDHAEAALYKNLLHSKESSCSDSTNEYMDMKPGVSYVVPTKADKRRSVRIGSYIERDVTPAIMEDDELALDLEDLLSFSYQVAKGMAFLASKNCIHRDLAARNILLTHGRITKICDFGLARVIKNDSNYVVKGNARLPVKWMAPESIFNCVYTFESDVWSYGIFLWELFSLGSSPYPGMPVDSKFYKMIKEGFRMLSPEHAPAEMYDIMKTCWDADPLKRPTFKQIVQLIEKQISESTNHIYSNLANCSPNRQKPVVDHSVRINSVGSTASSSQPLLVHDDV
Protocol: In this assay, the oxidation of NADH (measured by decrease in absorbance at 340 nm) was continuously monitored spectrophotometrically. […] The inhibition reaction was started by mixing serial diluted test compound with the above reaction mixture. The absorption at 340 nm was monitored continuously for 5 hours at 30 °C on Synergy 2 plate reader (BioTech). […] The protein construct was prepared by deCODE Biostructures using procedures known in the art. […] This construct is identical to Seq ID no.

c-KIT D816V kinase = biological target: T5, c-KIT D816V kinase (Homo sapiens, UniProt P10721, D816V); experiment: c-KIT D816V kinase Assay; type: biochemical; details: enzymatic assay, ATP 200 uM
T5 construct: residues T544-V976 with N-terminal GST fusion; purchased deCODE Biostructures
T5 sequence (P10721 544-976 D816V): as the sequence (P10721 544-976 T670I) above, with I127T, D273V counted along it
Method in brief: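 Coupled assay in which NADH oxidation was tracked as decreasing absorbance at 340 nm, continuously for 5 hours at 30 °C after adding serially diluted compound. Enzyme: cKit residues T544-V976 with N-terminal tag, GST fusion and TEV cleavage site.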

Phospho-KIT (Tyr719) [3] = experiment: GIST48 KIT Western Blot; type: cell-based; details: GIST48 cells, 4 hours, serum-free medium; read-out: pKIT suppression by western blot analysi GIST48
Method in brief: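 Phospho-KIT (Tyr719) was immunoblotted on PVDF and imaged in fluorescence mode after ECL Plus, with stripping and reprobing for total KIT. IC50 values were derived from the blot signals.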

Phospho-KIT (Tyr719) [4] = experiment: GIST430 KIT Western Blot; type: cell-based; details: GIST430 cells, 4 hours, serum-free medium; read-out: pKIT suppression by western blot analysi GIST430
Protocol: as §1
as §2, with “One” for “Two”, “Ham's F10” for “RPMI1640”

c-KIT D816H kinase = biological target: T6, c-KIT D816H kinase (Homo sapiens, UniProt P10721, D816H); experiment: c-KIT D816H Kinase Assay; type: biochemical; details: enzymatic assay, ATP 200 µM
T6 construct: The construct contains residues T544-V976 of cKit; GST (N); TEV cleavage site (internal); purchased deCODE Biostructures
T6 sequence (P10721 544-976 D816H): as the sequence (P10721 544-976 T670I) above, with I127T, D273H counted along it
Method in brief: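 Coupled spectrophotometric assay following NADH oxidation as absorbance decrease at 340 nm, monitored continuously for 6 hours at 30 °C after adding serially diluted compound. Enzyme: mutant cKit construct with N-terminal tag, GST fusion and TEV cleavage site.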

c-KIT kinase [5] = biological target: T1, c-KIT kinase; experiment: c-KIT kinase Assay; type: biochemical; design: cKIT residues T544-V976; GST (N); TEV cleavage site (internal); purchased deCODE Biostructures; details: enzymatic assay, ATP 200 µM; read-out: KIT (wt) IC50
Method in brief: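 Activity of wild-type human c-KIT kinase was followed as NADH oxidation, read as falling absorbance at 340 nm on a Synergy 2 plate reader (BioTeK) for 2 hours at 30 °C. Rates from the 0 to 1 h window were compared with an uninhibited control to give percent inhibition. IC50 values were fitted in GraphPad Prism across a range of inhibitor concentrations.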
Target sequence in this assay (P10721 544-976): as the sequence (P10721 544-976 T670I) above, with I127T counted along it

c-KIT V654A kinase = biological target: T7, c-KIT V654A kinase (Homo sapiens, UniProt P10721, V654A); experiment: c-KIT V654A Kinase Assay; type: biochemical; details: enzymatic assay, ATP 200 µM
T7 construct: residues T544-V976 with N-terminal GST fusion; purchased deCODE Biostructures
T7 sequence (P10721 544-976 V654A): as the sequence (P10721 544-976 T670I) above, with V111A, I127T counted along it
Method in brief: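 Construct: cKIT residues T544–V976 with N-terminal tag, GST fusion and TEV site. Reaction started by adding serially diluted compound to the enzyme mixture; NADH oxidation, coupled to kinase turnover, followed as the decrease in A340 for 6 h at 30 °C.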

GIST T1 cells = experiment: GIST T1 Cell Proliferation Assay; type: cell-based; details: Homo sapiens, GISTT1, 72 h, 68 hours + 4 hours resazurin
GIST430 cells = experiment: GIST 430 Cell Proliferation Assay; type: cell-based; details: Homo sapiens, 120 h, 115 hours + 5 hours resazurin
Protocol: GIST48, GIST430, and GIST882 cells were obtained from J. Fletcher (Brigham and Women's Hospital, Boston, MA). GIST T1 cells were obtained from B. Rubin (Cleveland Clinic, Cleveland, OH) and Professor Takahiro Taguchi (Kochi Medical School, Nankoku, Kochi, Japan). Briefly, GIST48 and GIST 882 cells were grown in RPMI 1640 medium supplemented with 15% characterized fetal bovine serum (Invitrogen, Carlsbad, CA), 1 unit/mL penicillin G, 1 µg/ml streptomycin, and 0.29 mg/mL L-glutamine at 37 °C, 5% CO2, and 95% humidity. GIST430 cells were grown in Ham's F10 medium supplemented with 15% characterized fetal bovine serum (Invitrogen, Carlsbad, CA), 30 mg/L bovine pituitary extract (BD Biosciences, San Jose, CA), 0.5% Mito+ serum extender (BD Biosciences, San Jose, CA), 1 unit/mL penicillin G, 1 µg/ml streptomycin, and 0.29 mg/mL L-glutamine at 37 °C, 5%CO2, 95% humidity. GIST T1 cells were grown in DMEM medium supplemented with 10% characterized fetal bovine serum (Invitrogen, Carlsbad, CA), 1 unit/mL penicillin G, 1 µg/ml streptomycin, and 0.29 mg/mL L-glutamine at 37 °C, 5% CO2, and 95% humidity.
A serial dilution of test compound was dispensed into a 384-well black clear bottom plate (Corning, Corning, NY). Two thousand five-hundred cells were added per well in 50 µL complete growth medium. Plates were incubated for 115 hours at 37°C, 5% CO2, 95% humidity. At the end of the incubation period 10 µL of a 440 µM solution of resazurin (Sigma, St. Louis, MO) in PBS was added to each well and incubated for an additional 5 hours at 37°C, 5% CO2, 95% humidity. Plates were read on a Synergy2 reader (Biotek, Winooski, VT) using an excitation of 540 nm and an emission of 600 nm.

Row | IC50 (Phospho-KIT (Tyr719) [2]) | IC50 (c-KIT T670I kinase) | IC50 (c-KIT VVDV kinase) | IC50 (c-KIT D816V kinase) | IC50 (Phospho-KIT (Tyr719) [3]) | IC50 (Phospho-KIT (Tyr719) [4]) | IC50 (c-KIT D816H kinase) | IC50 (c-KIT kinase [5]) | IC50 (c-KIT V654A kinase) | SMILES | IC50 (c-KIT kinase [1]) | IC50 (GIST T1 cells) | IC50 (GIST430 cells)
1 |  |  |  |  |  |  |  |  |  | CCCS(=O)(=O)Nc1ccc(F)c(C(=O)c2c[nH]c3ncc(-c4ccc(Cl)cc4)cc23)c1F [Vemurafenib®, vemurafenib] | 1600 nM |  | 
2 | < 10 nM | < 10 nM | 10 to 100 nM | 10 to 100 nM | < 10 nM | 10 to 100 nM |  |  |  | CNc1cc2c(cn1)cc(-c1cc(NC(=O)Nc3csc4ccccc34)c(F)cc1F)c(=O)n2C [Example 14, 1-(benzo[b]thiophen-3-yl)-3-(2,4-difluoro-5-(1-methyl-7-(methylamino)-2-oxo-1,2-dihydro-1,6-naphthyridin-3-yl)phenyl)urea] |  |  | 
3 | 10 to 100 nM | 10 to 100 nM | 10 to 100 nM | 10 to 100 nM | 10 to 100 nM | 10 to 100 nM | 10 to 100 nM | < 10 nM | < 10 nM | CCn1c(=O)c(-c2cc(NC(=O)Nc3cccc(F)c3)c(F)cc2F)cc2cnc(NC)cc21 [Example 15, 1-(5-(1-ethyl-7-(methylamino)-2-oxo-1,2-dihydro-1,6-naphthyridin-3-yl)-2,4-difluorophenyl)-3-(3-fluorophenyl)urea] |  |  | 
4 | < 10 nM | 10 to 100 nM |  | < 10 nM | < 10 nM | 10 to 100 nM |  | < 10 nM | 10 to 100 nM | CC(=O)Nc1cc2c(cn1)cc(-c1cc(NC(=O)Nc3ccccc3)c(F)cc1Cl)c(=O)n2C(C)C [Example 86, N-(3-(2-chloro-4-fluoro-5-(3-phenylureido)phenyl)-1-isopropyl-2-oxo-1,2-dihydro-1,6-naphthyridin-7-yl)acetamide] |  | < 10 nM | 
5 |  | 100 to 1000 nM |  | 10 to 100 nM | > 1000 nM |  | 10 to 100 nM | < 10 nM |  | CCn1c(=O)c(-c2cc(NC(=O)Nc3ccccc3F)c(F)cc2C)cc2cnc(NC)cc21 [Example 38, 1-(5-(1-ethyl-7-(methylamino)-2-oxo-1,2-dihydro-1,6-naphthyridin-3-yl)-2-fluoro-4-methylphenyl)-3-(2-fluorophenyl)urea] |  | < 10 nM | 10 to 100 nM
6 | 10 to 100 nM | 10 to 100 nM | 10 to 100 nM | 10 to 100 nM | 100 to 1000 nM | 100 to 1000 nM | 10 to 100 nM | < 10 nM | < 10 nM | CCn1c(=O)c(-c2cc(NC(=O)Nc3ccccc3)c(F)cc2F)cc2cnc(NC)cc21 [Example 16, 1-(5-(1-ethyl-7-(methylamino)-2-oxo-1,2-dihydro-1,6-naphthyridin-3-yl)-2,4-difluorophenyl)-3-phenylurea] |  |  | 
7 | 100 to 1000 nM | < 10 nM | 10 to 100 nM | 10 to 100 nM | 10 to 100 nM | < 10 nM | 10 to 100 nM | < 10 nM |  | CCn1c(=O)c(-c2cc(NC(=O)Nc3cccc4ccccc34)c(F)cc2C)cc2cnc(NC)cc21 [Example 1, 1-(5-(1-ethyl-7-(methylamino)-2-oxo-1,2-dihydro-1,6-naphthyridin-3-yl)-2-fluoro-4-methylphenyl)-3-(naphthalen-1-yl)urea] |  |  | 
8 |  | 10 to 100 nM |  | 10 to 100 nM |  |  |  | < 10 nM |  | CCn1c(=O)c(-c2cc(NC(=O)Nc3ccccc3)c(F)cc2Cl)cc2cnc(NCCCOC)cc21 [Example 39, 1-(4-chloro-5-(1-ethyl-7-(3-methoxypropylamino)-2-oxo-1,2-dihydro-1,6-naphthyridin-3-yl)-2-fluorophenyl)-3-phenylurea] |  |  | 10 to 100 nM
9 |  | 100 to 1000 nM | 100 to 1000 nM | 10 to 100 nM |  |  | 10 to 100 nM | < 10 nM | 10 to 100 nM | CNc1cc2c(cn1)cc(-c1cc(NC(=O)Nc3cccc(F)c3)c(F)cc1F)c(=O)n2C(C)C [Example 40, 1-(2,4-difluoro-5-(1-isopropyl-7-(methylamino)-2-oxo-1,2-dihydro-1,6-naphthyridin-3-yl)phenyl)-3-(3-fluorophenyl)urea] |  | < 10 nM | 100 to 1000 nM
